Measurements: ChEMBL document CHEMBL1909294, “Translating clinical findings into knowledge in drug safety evaluation--drug induced liver injury prediction system (DILIps)” (PLoS Comput Biol, 2011)

Legend:
[1] = tested on: Hepatotoxicity;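 on HepSE cholelithiasis: hepatic side effect score for cholelithiasis, drawn from the DILIps training data for predicting drug-induced liver injury; call rule not given here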;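 on HepSE hepatic necrosis: score of hepatic side effects for hepatic necrosis, drawn from the training data of DILIps, a prediction system for drug-induced liver injury; call rule not given here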;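 on HepSE hepatomegaly: hepatic side effect score for hepatomegaly, taken from the training set of the DILIps drug-induced liver injury prediction system; call rule not given here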;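 on HepSE jaundice: Jaundice-related hepatic side-effect score drawn from the training data of the DILIps (drug-induced liver injury prediction system); call rule not given here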; on HepSE liver disease: call rule not given here;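 on HepSE liver function tests abnormal: hepatic side effect score taken from the DILIps (drug-induced liver injury prediction system) training data, here covering abnormal liver function test findings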
[2] = tested on: Hepatotoxicity; remark: listed apart in the source;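 on HepSE cholelithiasis: hepatic side effect score for cholelithiasis, drawn from the DILIps training data for predicting drug-induced liver injury; call rule not given here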;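 on HepSE hepatic necrosis: score of hepatic side effects for hepatic necrosis, drawn from the training data of DILIps, a prediction system for drug-induced liver injury; call rule not given here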;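 on HepSE hepatomegaly: hepatic side effect score for hepatomegaly, taken from the training set of the DILIps drug-induced liver injury prediction system; call rule not given here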;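 on HepSE jaundice: Jaundice-related hepatic side-effect score drawn from the training data of the DILIps (drug-induced liver injury prediction system); call rule not given here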; on HepSE liver disease: call rule not given here;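 on HepSE liver function tests abnormal: hepatic side effect score taken from the DILIps (drug-induced liver injury prediction system) training data, here covering abnormal liver function test findings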
[3] = tested on: Hepatotoxicity; remark: listed apart in the source;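 on HepSE cholelithiasis: hepatic side effect score for cholelithiasis, drawn from the DILIps training data for predicting drug-induced liver injury; call rule not given here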;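 on HepSE hepatic necrosis: score of hepatic side effects for hepatic necrosis, drawn from the training data of DILIps, a prediction system for drug-induced liver injury; call rule not given here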;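 on HepSE hepatomegaly: hepatic side effect score for hepatomegaly, taken from the training set of the DILIps drug-induced liver injury prediction system; call rule not given here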;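 on HepSE jaundice: Jaundice-related hepatic side-effect score drawn from the training data of the DILIps (drug-induced liver injury prediction system); call rule not given here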; on HepSE liver disease: call rule not given here;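 on HepSE liver function tests abnormal: hepatic side effect score taken from the DILIps (drug-induced liver injury prediction system) training data, here covering abnormal liver function test findings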
[4] = tested on: Hepatotoxicity; remark: listed apart in the source;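 on HepSE cholelithiasis: hepatic side effect score for cholelithiasis, drawn from the DILIps training data for predicting drug-induced liver injury; call rule not given here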;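 on HepSE hepatic necrosis: score of hepatic side effects for hepatic necrosis, drawn from the training data of DILIps, a prediction system for drug-induced liver injury; call rule not given here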;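 on HepSE hepatomegaly: hepatic side effect score for hepatomegaly, taken from the training set of the DILIps drug-induced liver injury prediction system; call rule not given here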;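 on HepSE jaundice: Jaundice-related hepatic side-effect score drawn from the training data of the DILIps (drug-induced liver injury prediction system); call rule not given here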; on HepSE liver disease: call rule not given here;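 on HepSE liver function tests abnormal: hepatic side effect score taken from the DILIps (drug-induced liver injury prediction system) training data, here covering abnormal liver function test findings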
[5] = tested on: Hepatotoxicity; remark: listed apart in the source; on HepSE liver disease: call rule not given here
[6] = tested on: Hepatotoxicity; remark: listed apart in the source; on HepSE liver disease: call rule not given here
[7] = tested on: Hepatotoxicity; remark: listed apart in the source
[8] = tested on: Hepatotoxicity; remark: listed apart in the source
[9] = tested on: Hepatotoxicity; remark: listed apart in the source
[10] = tested on: Hepatotoxicity; remark: listed apart in the source
[11] = tested on: Hepatotoxicity; remark: listed apart in the source
[12] = tested on: Hepatotoxicity; remark: listed apart in the source
[13] = tested on: Hepatotoxicity; remark: listed apart in the source
[14] = tested on: Hepatotoxicity; remark: listed apart in the source

| SMILES | HepSE_hepatomegaly [1] | HepSE_liver disease [2] | HepSE_cholelithiasis [3] | HepSE_liver fatty [4] | HepSE_liver function tests abnormal [5] | HepSE_hepatic necrosis [6] | HepSE_jaundice [7] | HepSE_elevated liver function tests [8] | HepSE_bilirubinemia [9] | HepSE_cholecystitis [10] | HepSE_Combined Scores [11] | HepSE_cirrhosis [12] | HepSE_hepatitis [13] | HepSE_hepatic failure [14] |
| --- | --- | --- | --- | --- | --- | --- | --- | --- | --- | --- | --- | --- | --- | --- |
| COc1ccccc1Oc1c(NS(=O)(=O)c2ccc(C(C)(C)C)cc2)nc(-c2ncccn2)nc1OCCO [BOSENTAN] | 0 | 0 | 0 | 0 | 0 | 0 | 1 | 0 | 0 | 0 | 4 | 1 | 1 | 1 |
| CC1=C(/C=C/C(C)=C/C=C/C(C)=C/C(=O)O)C(C)(C)CCC1 [TRETINOIN] | 0 | 1 | 0 | 0 | 0 | 0 | 0 | 0 | 0 | 0 | 2 | 0 | 1 | 0 |
| CNC(=C[N+](=O)[O-])NCCSCc1csc(CN(C)C)n1 [NIZATIDINE] | 0 | 0 | 0 | 0 | 0 | 0 | 1 | 0 | 0 | 0 | 2 | 0 | 1 | 0 |
| CCC(=O)O[C@]1(C(=O)CCl)[C@@H](C)C[C@H]2[C@@H]3C[C@H](F)C4=CC(=O)C=C[C@]4(C)[C@@]3(F)[C@@H](O)C[C@@]21C [HALOBETASOL PROPIONATE] | 0 | 0 | 0 | 0 | 0 | 0 | 0 | 0 | 0 | 0 | 0 | 0 | 0 | 0 |
| CO/N=C(\C(=O)N[C@@H]1C(=O)N2C(C(=O)O)=C(COC(C)=O)CS[C@H]12)c1csc(N)n1 [CEFOTAXIME] | 0 | 0 | 0 | 0 | 0 | 0 | 1 | 0 | 0 | 0 | 2 | 0 | 1 | 0 |
| C[C@]12C=CC(=O)C=C1CC[C@@H]1[C@@H]2[C@@H](O)C[C@@]2(C)[C@H]1CC[C@]2(O)C(=O)CO [PREDNISOLONE] | 1 | 0 | 0 | 0 | 0 | 0 | 0 | 0 | 0 | 0 | 1 | 0 | 0 | 0 |
| CCOc1cc(CC(=O)N[C@@H](CC(C)C)c2ccccc2N2CCCCC2)ccc1C(=O)O [REPAGLINIDE] | 0 | 0 | 0 | 0 | 0 | 0 | 1 | 0 | 0 | 0 | 2 | 0 | 1 | 0 |
| Nc1ncnc2c1ncn2[C@@H]1O[C@H](COP(=O)(S)S)[C@@H](O)[C@H]1O | 0 | 0 | 0 | 0 | 0 | 1 | 1 | 1 | 0 | 0 | 6 | 1 | 1 | 1 |
| C[C@@H]1O[C@@H]1P(=O)(O)O [FOSFOMYCIN] | 0 | 0 | 0 | 0 | 0 | 1 | 1 | 0 | 0 | 0 | 2 | 0 | 0 | 0 |
| CNNCc1ccc(C(=O)NC(C)C)cc1 [PROCARBAZINE] | 0 | 0 | 0 | 0 | 0 | 0 | 1 | 0 | 0 | 0 | 1 | 0 | 0 | 0 |
| CN1CCN(CCCN2c3ccccc3Sc3ccc(Cl)cc32)CC1 [PROCHLORPERAZINE] | 0 | 0 | 0 | 0 | 0 | 0 | 1 | 0 | 0 | 0 | 1 | 0 | 0 | 0 |
| Cc1ccc(-c2nc3ccc(C)cn3c2CC(=O)N(C)C)cc1 [ZOLPIDEM] | 0 | 0 | 0 | 0 | 0 | 0 | 0 | 0 | 1 | 0 | 1 | 0 | 0 | 0 |
| CN(C)CC(c1ccc(O)cc1)C1(O)CCCCC1 (configuration not stated) [DESVENLAFAXINE] | 0 | 0 | 0 | 0 | 0 | 0 | 0 | 0 | 0 | 0 | 0 | 0 | 0 | 0 |
